Laboratory results as given in ChEMBL document CHEMBL1201862, “PubChem BioAssay data set” (2004).
Blank lines part the entries; values can stand above or below the molecule they belong to. Calls of active or inactive are those of the source.

Key:
[1] = system: BJ; test: BJ-TERT-LT-ST fibroblast viability loss – cell-based, RAS-independent, luminescence, dose response (AID 1935); format: functional; details: Homo sapiens;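 also: BJ fibroblasts immortalized with TERT plus LT and ST oncogenes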
[2] = biological target: Prothrombin (Bos taurus, UniProt P00735); test: thrombin protease inhibitors – biochemical, fluorescence polarization, uHTS hits, dose response (AID 602369); format: functional
[3] = biological target: Focal adhesion kinase 1 (Homo sapiens, UniProt Q05397); format: functional;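 also: measured as one member of a kinome panel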
Focal adhesion kinase 1, sequence (Q05397 whole entry, the tested form may be a part): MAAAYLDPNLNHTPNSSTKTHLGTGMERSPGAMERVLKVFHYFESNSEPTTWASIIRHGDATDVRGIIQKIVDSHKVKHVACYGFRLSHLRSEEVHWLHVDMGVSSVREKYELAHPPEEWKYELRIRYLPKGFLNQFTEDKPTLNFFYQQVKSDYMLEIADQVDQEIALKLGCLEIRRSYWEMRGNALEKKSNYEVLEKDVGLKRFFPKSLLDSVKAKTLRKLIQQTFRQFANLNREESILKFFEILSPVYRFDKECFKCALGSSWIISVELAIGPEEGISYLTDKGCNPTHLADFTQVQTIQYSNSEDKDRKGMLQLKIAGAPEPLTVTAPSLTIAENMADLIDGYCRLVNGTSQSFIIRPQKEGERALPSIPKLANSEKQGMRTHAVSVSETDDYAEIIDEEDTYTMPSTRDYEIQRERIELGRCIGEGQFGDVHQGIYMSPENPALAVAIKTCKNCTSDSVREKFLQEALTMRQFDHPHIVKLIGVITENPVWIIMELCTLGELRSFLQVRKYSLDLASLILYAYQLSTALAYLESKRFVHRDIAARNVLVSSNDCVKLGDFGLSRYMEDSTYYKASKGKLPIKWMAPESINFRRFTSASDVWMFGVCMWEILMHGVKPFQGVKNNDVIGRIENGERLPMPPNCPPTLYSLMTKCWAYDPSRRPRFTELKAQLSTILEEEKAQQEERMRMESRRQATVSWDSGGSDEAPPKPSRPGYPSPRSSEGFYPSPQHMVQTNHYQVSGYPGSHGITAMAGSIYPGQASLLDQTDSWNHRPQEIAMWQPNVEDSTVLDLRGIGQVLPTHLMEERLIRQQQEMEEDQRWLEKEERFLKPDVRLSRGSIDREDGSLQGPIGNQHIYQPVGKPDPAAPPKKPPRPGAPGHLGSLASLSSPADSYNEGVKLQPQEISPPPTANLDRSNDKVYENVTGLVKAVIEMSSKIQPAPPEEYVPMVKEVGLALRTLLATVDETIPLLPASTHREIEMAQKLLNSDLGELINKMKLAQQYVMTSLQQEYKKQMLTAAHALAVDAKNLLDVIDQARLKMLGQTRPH

[4] = off-target signal loss in HeLa-CEM21 co-culture – HeLa F-luc CTL cells, cherry-picked, counter-screen for HIV-1 Env fusion inhibitor project, dose response (AID 652040); format: functional, cell-based;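 also: potency for signal decrease marking cytotoxic or nonspecific inhibition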
[5] = biological target: T1, Ubiquitin-conjugating enzyme E2 N (Homo sapiens, UniProt P61088); format: functional;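 also: Dose-response confirmation in a TR-FRET assay detecting UBC13-driven polyubiquitin chain formation, inhibition measured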
T1 sequence (P61088 whole entry): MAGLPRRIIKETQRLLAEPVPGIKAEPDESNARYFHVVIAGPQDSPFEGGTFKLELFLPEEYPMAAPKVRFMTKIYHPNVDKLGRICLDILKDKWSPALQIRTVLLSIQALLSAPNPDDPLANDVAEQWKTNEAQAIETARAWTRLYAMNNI

[6] = biological target: T2, Short transient receptor potential channel 4 (Mus musculus, UniProt Q9QUQ5); test: calcium entry via TRPC4 opening agents – cell-based, HEK293 TRPC4/mu-opioid, Fluo-4 calcium, dose response (AID 434937); format: functional
T2 sequence (Q9QUQ5 whole entry): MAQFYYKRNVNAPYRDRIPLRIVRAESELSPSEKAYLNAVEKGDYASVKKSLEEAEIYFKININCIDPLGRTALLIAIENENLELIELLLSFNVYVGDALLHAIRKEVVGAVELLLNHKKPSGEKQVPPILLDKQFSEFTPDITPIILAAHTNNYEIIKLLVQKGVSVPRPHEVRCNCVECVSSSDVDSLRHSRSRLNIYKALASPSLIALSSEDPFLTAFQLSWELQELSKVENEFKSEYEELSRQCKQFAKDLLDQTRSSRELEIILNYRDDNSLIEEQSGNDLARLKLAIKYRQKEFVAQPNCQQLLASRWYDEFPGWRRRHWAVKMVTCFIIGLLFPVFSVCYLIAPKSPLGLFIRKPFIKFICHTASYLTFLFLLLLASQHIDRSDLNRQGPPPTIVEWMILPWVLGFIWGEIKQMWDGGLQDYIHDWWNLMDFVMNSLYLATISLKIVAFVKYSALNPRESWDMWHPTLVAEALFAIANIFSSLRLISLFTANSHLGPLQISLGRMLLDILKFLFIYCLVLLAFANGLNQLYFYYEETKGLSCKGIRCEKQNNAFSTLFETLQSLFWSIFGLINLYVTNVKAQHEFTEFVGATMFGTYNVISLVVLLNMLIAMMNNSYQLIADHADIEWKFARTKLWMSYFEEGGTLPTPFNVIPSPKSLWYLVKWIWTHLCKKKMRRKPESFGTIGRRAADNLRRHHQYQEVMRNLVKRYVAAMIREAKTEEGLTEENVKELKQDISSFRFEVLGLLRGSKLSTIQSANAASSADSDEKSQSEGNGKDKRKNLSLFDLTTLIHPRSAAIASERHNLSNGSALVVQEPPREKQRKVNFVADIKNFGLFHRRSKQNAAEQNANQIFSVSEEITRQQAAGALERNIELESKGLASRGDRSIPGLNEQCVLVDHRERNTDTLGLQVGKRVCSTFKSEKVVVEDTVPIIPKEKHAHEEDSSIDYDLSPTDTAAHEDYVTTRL

[7] = biological target: T3, Insulin-degrading enzyme (Homo sapiens, UniProt P14735); test: recombinant IDE activation, cell-free – biochemical, fluorescence polarization, counter-screen for IDE activator project, dose response (AID 588681)
T3 sequence (P14735 whole entry): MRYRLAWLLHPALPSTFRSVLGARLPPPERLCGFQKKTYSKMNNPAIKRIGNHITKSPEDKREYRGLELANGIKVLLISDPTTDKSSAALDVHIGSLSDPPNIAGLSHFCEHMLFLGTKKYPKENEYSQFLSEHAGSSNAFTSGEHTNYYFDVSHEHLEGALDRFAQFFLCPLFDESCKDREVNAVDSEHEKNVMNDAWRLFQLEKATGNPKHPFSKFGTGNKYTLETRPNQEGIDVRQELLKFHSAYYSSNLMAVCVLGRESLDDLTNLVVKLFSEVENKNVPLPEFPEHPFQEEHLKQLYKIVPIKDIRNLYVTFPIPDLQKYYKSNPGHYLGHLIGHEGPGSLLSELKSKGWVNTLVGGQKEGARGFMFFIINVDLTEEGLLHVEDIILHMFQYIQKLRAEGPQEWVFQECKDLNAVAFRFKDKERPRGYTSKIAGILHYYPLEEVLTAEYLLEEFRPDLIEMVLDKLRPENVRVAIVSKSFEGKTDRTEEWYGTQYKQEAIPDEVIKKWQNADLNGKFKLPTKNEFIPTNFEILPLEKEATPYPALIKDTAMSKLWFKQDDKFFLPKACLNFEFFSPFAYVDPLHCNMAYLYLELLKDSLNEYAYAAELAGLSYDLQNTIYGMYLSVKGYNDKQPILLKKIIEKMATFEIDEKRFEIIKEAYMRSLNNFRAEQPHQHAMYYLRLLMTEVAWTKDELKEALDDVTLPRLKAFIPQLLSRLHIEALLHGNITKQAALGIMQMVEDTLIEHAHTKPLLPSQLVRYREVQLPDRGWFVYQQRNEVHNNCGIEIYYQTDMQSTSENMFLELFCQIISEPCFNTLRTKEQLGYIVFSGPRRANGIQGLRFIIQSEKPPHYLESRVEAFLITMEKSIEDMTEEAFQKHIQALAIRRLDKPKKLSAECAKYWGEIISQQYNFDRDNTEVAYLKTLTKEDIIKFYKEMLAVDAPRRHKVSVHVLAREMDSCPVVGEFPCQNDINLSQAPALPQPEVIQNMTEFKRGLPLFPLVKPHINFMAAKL

[8] = biological target: T3, Insulin-degrading enzyme; test: cellular IDE activation of Abeta substrate cleavage – fluorescence polarization, HEK cells, dose response (AID 588439); format: functional, cell-based
[9] = biological target: T4, RNA-binding protein pos-1 (Caenorhabditis elegans, UniProt G5EF15); test: disruptors of C. elegans POS-1 RNA interaction – biochemical, fluorescence polarization, dose response (AID 1964);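 also: purified POS-1 fused to maltose binding protein made in E. coli; potency of compounds blocking POS-1 binding to fluorescent RNA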
T4 sequence (G5EF15 whole entry): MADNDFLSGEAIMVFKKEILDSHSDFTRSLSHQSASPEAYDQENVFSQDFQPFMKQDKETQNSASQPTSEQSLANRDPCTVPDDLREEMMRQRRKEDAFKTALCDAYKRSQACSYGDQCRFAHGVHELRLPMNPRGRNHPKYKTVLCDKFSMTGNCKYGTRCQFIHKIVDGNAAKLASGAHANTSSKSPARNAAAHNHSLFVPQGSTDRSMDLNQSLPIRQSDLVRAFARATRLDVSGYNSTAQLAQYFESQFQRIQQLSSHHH

[10] = biological target: Cell division cycle 7-related protein kinase (Homo sapiens, UniProt O00311); format: functional;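 also: value obtained from a kinome-wide kinase panel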
Cell division cycle 7-related protein kinase, sequence (O00311 whole entry): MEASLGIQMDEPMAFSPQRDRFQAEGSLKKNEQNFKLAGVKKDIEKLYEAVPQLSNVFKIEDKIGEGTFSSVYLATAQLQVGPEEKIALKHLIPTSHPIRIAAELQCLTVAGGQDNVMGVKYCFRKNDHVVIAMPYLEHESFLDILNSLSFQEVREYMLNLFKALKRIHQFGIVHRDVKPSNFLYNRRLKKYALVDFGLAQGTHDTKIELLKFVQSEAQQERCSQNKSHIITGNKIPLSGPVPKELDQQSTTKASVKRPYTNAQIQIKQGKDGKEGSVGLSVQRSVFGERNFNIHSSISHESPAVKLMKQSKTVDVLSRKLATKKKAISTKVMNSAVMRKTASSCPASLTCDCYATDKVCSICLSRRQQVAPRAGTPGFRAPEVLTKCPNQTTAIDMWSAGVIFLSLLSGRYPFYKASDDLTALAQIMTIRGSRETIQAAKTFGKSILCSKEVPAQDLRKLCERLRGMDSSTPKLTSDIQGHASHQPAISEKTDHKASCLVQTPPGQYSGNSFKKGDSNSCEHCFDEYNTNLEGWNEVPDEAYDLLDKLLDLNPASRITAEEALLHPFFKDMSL

[11] = biological target: Misshapen-like kinase 1 (Homo sapiens, UniProt Q8N4C8); format: functional;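 also: kinome panel screen with MINK as the panel member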
Misshapen-like kinase 1, sequence (Q8N4C8 whole entry): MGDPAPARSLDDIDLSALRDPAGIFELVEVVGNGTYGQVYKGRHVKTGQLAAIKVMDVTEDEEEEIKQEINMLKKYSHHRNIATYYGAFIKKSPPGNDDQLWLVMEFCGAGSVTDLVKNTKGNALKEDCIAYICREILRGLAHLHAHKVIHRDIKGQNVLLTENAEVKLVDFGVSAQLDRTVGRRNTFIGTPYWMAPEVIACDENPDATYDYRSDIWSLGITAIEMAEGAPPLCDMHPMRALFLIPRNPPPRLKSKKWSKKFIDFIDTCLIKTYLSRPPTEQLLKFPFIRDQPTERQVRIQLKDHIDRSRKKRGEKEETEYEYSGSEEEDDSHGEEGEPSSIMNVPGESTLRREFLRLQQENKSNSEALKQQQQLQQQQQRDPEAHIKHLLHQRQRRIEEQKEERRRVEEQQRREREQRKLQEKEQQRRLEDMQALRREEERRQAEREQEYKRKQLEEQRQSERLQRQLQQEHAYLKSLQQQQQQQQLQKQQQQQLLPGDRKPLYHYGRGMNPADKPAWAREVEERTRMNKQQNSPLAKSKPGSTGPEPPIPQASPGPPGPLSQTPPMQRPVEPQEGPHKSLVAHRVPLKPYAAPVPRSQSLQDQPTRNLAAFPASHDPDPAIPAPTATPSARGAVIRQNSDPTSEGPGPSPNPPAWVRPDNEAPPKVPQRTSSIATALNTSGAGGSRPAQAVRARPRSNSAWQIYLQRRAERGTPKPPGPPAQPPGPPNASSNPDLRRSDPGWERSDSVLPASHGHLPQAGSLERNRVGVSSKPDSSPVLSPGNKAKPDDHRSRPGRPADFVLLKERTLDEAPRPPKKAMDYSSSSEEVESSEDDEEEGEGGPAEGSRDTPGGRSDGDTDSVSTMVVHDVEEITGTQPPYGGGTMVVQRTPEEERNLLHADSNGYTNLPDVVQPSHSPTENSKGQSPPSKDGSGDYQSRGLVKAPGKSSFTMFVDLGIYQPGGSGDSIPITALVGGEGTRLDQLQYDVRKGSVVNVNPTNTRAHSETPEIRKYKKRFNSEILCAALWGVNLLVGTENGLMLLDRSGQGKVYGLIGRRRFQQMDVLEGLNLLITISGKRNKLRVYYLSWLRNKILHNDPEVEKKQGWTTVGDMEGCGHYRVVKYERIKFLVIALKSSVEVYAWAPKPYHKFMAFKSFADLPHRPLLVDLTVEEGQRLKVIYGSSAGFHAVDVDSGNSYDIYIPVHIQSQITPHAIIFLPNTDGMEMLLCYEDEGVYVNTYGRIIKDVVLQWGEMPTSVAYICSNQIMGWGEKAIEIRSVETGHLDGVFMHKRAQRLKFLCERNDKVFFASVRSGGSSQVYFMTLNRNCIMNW

[12] = biological target: Serine/threonine-protein kinase 17A (Homo sapiens, UniProt Q9UEE5); format: functional
Serine/threonine-protein kinase 17A, sequence (Q9UEE5 whole entry): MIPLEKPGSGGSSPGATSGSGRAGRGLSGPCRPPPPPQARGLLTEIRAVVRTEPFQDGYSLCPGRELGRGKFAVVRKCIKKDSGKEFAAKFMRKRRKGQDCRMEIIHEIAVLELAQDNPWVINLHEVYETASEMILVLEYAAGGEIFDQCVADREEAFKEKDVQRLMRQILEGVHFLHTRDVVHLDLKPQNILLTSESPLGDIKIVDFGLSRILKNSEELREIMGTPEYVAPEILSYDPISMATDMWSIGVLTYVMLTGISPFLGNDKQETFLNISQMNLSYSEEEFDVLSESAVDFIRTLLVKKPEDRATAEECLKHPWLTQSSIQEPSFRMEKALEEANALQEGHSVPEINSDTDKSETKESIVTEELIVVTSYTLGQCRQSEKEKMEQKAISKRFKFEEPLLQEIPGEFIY

Compound: O=C(N/N=C/c1c(O)ccc2ccccc12)c1[nH]ncc1Br
EC50 [1]: 10.5 µM (active)
IC50 [2]: 91.6 µM (active)

Compound: CCN1C(=Cc2sc3ccccc3[n+]2C)C=Cc2cccc(C)c21
AC50 [4]: 9.01 µM (active)

Compound: CNC[C@H](Cc1ccccc1)NC[C@@H](Cc1cccc2ccccc12)NCCc1ccc(C)cc1
IC50 [5]: 14.9 µM (active)
EC50 [6]: 9.44 µM (active)
EC50 [7]: > 54.7 µM (inactive)
EC50 [8]: 7.52 µM (active)

Compound: Nc1nnc2c(n1)CCCC2
EC50 [9]: 104 µM (active)

Continued, values first:

Ki [3]: > 6.31 µM (inactive)
Compound: Nc1c(-c2ccc(NC(=O)Nc3cccc(C(F)(F)F)c3)cc2)cnc2c(-c3ccc4c(c3)OCO4)cnn12

Ki [10]: 0.00158 µM (active)
Ki [11]: > 2.51 µM (inactive)
Ki [12]: 1.58 µM (active)
Compound: O=C(Nc1cc(-c2c[nH]c3ncccc23)cc(Cl)n1)c1ccccc1
